Target: Acetylcholinesterase (Homo sapiens, UniProt P22303)
Assay: Inhibition of acetylcholinesterase (unknown origin)

Chain of Acetylcholinesterase (P22303 whole entry): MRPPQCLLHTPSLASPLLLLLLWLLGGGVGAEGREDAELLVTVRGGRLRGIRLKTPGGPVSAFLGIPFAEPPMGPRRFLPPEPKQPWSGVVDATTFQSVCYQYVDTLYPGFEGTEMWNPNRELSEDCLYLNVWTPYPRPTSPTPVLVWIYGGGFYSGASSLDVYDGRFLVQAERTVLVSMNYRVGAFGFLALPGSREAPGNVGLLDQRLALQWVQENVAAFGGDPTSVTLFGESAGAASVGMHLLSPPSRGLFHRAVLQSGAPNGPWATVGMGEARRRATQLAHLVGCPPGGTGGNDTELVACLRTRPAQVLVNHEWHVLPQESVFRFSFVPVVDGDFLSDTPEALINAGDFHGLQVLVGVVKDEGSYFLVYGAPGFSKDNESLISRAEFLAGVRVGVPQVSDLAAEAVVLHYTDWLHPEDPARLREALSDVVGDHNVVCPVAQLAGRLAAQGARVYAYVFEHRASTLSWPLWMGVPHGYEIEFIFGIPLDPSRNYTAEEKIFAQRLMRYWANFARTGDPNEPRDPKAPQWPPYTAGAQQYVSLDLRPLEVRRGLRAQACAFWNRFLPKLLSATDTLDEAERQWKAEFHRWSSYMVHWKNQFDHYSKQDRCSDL

CNCOc1cccc(CN(C)CCCCCCCOc2ccc3c(=O)c4ccccc4oc3c2)c1 gave an IC50 of 0.32 nM.

In the case of CCN(CCCCCOc1ccc2c(=O)c3ccccc3oc2c1)Cc1cccc(OC(=O)NC)c1, the IC50 is reported as 0.82 nM.

In the case of CN(CCCCCOc1ccc2c(=O)c3ccccc3oc2c1)Cc1ccccc1, the IC50 is reported as 6250 nM.

Reference: ChEMBL document CHEMBL3046901, “3D-pharmacophore model based virtual screening to identify dual-binding site and selective acetylcholinesterase inhibitors” (Med Chem Res, 2011)
